This is an account of results in ChEMBL document CHEMBL1649192, “Dynamics of malaria drug resistance patterns in the Amazon basin region following changes in Peruvian national treatment policy for uncomplicated malaria” (Antimicrob Agents Chemother, 2009).

For test [1], the system named is Plasmodium falciparum. Briefly: Antimicrobial activity against Plasmodium falciparum harboring NGFSDD genotype after 72 hrs by SYBR green I assay.
For test [2], the system named is Plasmodium falciparum. Briefly: Antimicrobial activity against Plasmodium falciparum harboring SVMNT genotype after 72 hrs by SYBR green I assay.
Test [3] has as its system Plasmodium falciparum. Briefly: Antimicrobial activity against Plasmodium falciparum harboring CVMNT genotype after 72 hrs by SYBR green I assay.

The term IC50 denotes the concentration that gives 50% inhibition. As to `OC(c1cc(C(F)(F)F)nc2c(C(F)(F)F)cccc12)C1CCCCN1` (stereo not drawn) [MEFLOQUINE], the IC50 in the test on Plasmodium falciparum [1] stood at 21 nM.
With `C=C[C@H]1CN2CC[C@H]1C[C@H]2[C@H](O)c1ccnc2ccc(OC)cc12` [QUININE], the IC50 in the test with Plasmodium falciparum [2] stood at 70 nM; with Plasmodium falciparum [3], 66 nM.
